From patent US20100040667A1, “METHOD OF TREATING BONE CANCER” (ED. GEISTLICH SOEHNE AG FUER CHEMISCHE INDUSTRIE, priority 2006, published 2010) come the findings set out here.

In data set [1] the test system is osteosarcoma cell lines SAOS-2 (HTB-85), U2OS (HTB-96), HOS, 143B, LM5, Hu09 WT, Hu09H3, Hu09 L13, MG-63 and MG-63 M8. Nature of the data set: Taurolidine tested against 10 osteosarcoma cell lines. In kind it is cell-based. The protocol: Taurolidine was tested against 10 oestosarcoma cell lines at concentrations of 50, 100 and 200 uM taurolidine. The cell lines were SAOS-2 (HTB-85), U2OS (HTB-96), HOS, 143B, LM5, Hu09 WT, Hu09H3, Hu09 L13, MG-63 and MG-63 M8.

Data set [2] can be described thus: Solubility of taurolidine in water. In kind it is physicochemical. Particulars: room temperature. The source says: The preferred active substances are methylol transfer agents such as taurolidine, taurultam, mixtures thereof or equilibriums thereof. Where taurolidine and/or taurultam is used, its concentration in the aqueous solution absorbed in the gel is preferably 0.5% to 5% by weight, e.g. about 1 to 4%. Where the gel is in the form of a granulate, 2-4% by weight taurolidine and/or taurultam is preferred, more preferably, 4% taurolidine and/or taurultam by weight. Taurolidine is only about 2-3% soluble in water at room temperature, so that at higher concentrations, some material will be present as a suspension of, for example, fine taurolidine crystals.

Regarding `O=S1(=O)CCN(CN2CCS(=O)(=O)NC2)CN1` [Taurolidine, taurolidine], the apoptotic cells entry in data set [1] (50, 100 and 200 uM taurolidine) is on record as “dose-dependent increase in apoptic cells”. Besides, in data set [1] (50, 100 and 200 uM taurolidine, 10 cell lines), the “inhibition of osteosarcoma cell lines” value is recorded as “inhibited all osteosarcoma cell lines tested”. The mechanism of apoptosis result in data set [1] (osteosarcoma cell lines) is “caspase-dependent”. Moreover, in data set [2], the soluble in water is given as 2-3%.
